Columns and labels:
[1] = Stability in human primary hepatocytes; type: in vitro ADME
B16F10 tumors = assay: Five-day treatment of B16F10 tumors: cell death and tumor immune microenvironment; type: in vivo, C57BL/6J mice
From the text: Figure 5 LD4172 alters the tumor immune microenvironment. A. Representative immunofluorescent images depict RIPK1, Calreticulin, CD8, CD4, Foxp3, or F4/80, as well as hematoxylin and eosin (H&E) images, alongside representative images illustrating cleaved caspase3/7 levels in B16F10 tumors under the indicated treatment for five days. n = 4–6 independent fields per group. Scale bars are shown as follows: 20 μm, objective 60X; 200 μm, objective 60X. B. The mouse plasma HMGB1 level from different treatment groups (n=8). C-G. Flow cytometry quantification of PD1+CD8+ T cells (C), CD4+ T cells (D), cDC cells (E), macrophages (F), and CD8+ T cells (G) in B16F10 tumors following 5 days of indicated treatment (n = 10/group). H. Flow cytometric quantification of IFNγ+ CD8+ T cells in B16F10 tumors treated with the indicated treatments for 5 days and stimulated with PMA/ionomycin in vitro for 6 h (n = 10/group). I. Tumor volume (mm3) of vehicle-, anti-PD1-, LD4172-, anti-PD1+LD4172-, and anti-PD1+LD4172+anti-CD8–treated B16F10 tumors (n=8). J. Heat map showing log 10-fold changes in the concentration of mouse plasma cytokines normalized by the mean value of control mice (n=8). For all experiments: LD4172: 20 mg/kg; anti-PD1 antibody: 100 μg/mice; Combo: LD4172 plus anti-PD1. Representative data from at least three independent experiments are shown. Data are expressed as the mean ± SEM. * p<0.05; ** p<0.01; *** p<0.001; **** p<0.0001, respectively. “ns” indicates no statistical significance.
Tumors were collected on day 13, weighed, mechanically diced, and digested with liberase (2 mg/mL, 05401020001, Roche) and DNase I (50 μg/mL, 11284932001, Sigma-Aldrich) at 37°C for 30 minutes with rotation. Single-cell suspensions were obtained by filtering the digested tissues through a 45 μm strainer, after which erythrocytes were removed using 1x RBC lysis buffer (420301, Biolegend). To stain the cell surface markers of tumor-infiltrating lymphocytes (TILs), single-cell suspensions were blocked with anti-mouse CD16/32 (156603, BioLegend) for 10 minutes on ice, and then incubated with fluorochrome-labeled antibodies diluted with staining buffer (1:50, PBS, 2% FBS, 0.1% EDTA) for 30 minutes on ice in the dark. Dead cells were excluded using DAPI (1:1,000, BioLegend). After washing, cells were resuspended in 300–500 μL staining buffer for flow cytometry analysis. For intracellular cytokine staining, cells were incubated in culture medium (RPMI-1640, 10% FBS, Brefeldin A or Cell Activation Cocktail (with Brefeldin A)) at 37°C for 6 h. Cells were stained with eBioscience™ Fixable Viability Dye eFluor™ 450, TruStain FcX™ PLUS and surface CD45, CD3ε, CD8a. Cells were fixed-permeabilized by Intracellular Fixation & Permeabilization Buffer Set (Biolegend, 421403) according to the manufacturer’s protocol. Then cells were stained with anti-IFNγ (XMG1.2) for 1 hour at room temperature (RT). Cells were resuspended in FACS buffer and subjected to BD LSR-II for analysis.
Mouse serum was analyzed using multiplex immunoassays designed for mice (Mouse Cytokine Array / Chemokine Array 31-Plex (MD31) from Eve Technologies), with 8 replicates from each group. Heatmaps display relative cytokine expression values normalized to vehicle-treated samples. Serum HMGB1 was analyzed by ELISA (NOVUS, NBP2–62767) according to the manufacturer’s protocol.
For H&E staining, the hydrated slides were stained with hematoxylin and eosin. For IHC analysis, after hydration, the sections were subjected to antigen retrieval by incubating in citrate buffer (pH 6.0), Tris EDTA buffer (pH 9.0), or EDTA buffer (pH 8.0) at 121°C for 15 minutes. Endogenous peroxidase was blocked with 3% H2O2 in PBS, and non-specific binding was blocked with 2.5% normal serum for 1 hour at room temperature. The sections were then incubated with the respective primary antibodies overnight at 4°C. […]

## Cc1ncsc1-c1ccc([C@H](C)NC(=O)[C@@H]2C[C@@H](O)CN2C(=O)[C@@H](NC(=O)CCCCCCCCCCC(=O)NCCCn2cc(-c3ccc4c(c3)CCN4C(=O)Cc3cccc(OC(F)(F)F)c3)c3c(N)ncnc32)C(C)(C)C)cc1 [LD4172]
[1]
  half-life: 56.3 min
B16F10 tumors; 20 mg/kg
  RIPK1 degradation in the tumor: substantial degradation of RIPK1
  cell death in the tumor (H&E): significant cell death
  cleaved caspase 3/7 levels in tumors: notable increase
  plasma HMGB1 levels: significant increase
B16F10 tumors; 20 mg/kg, flow cytometry
  CD4 + T cells, conventional dendritic cells and macrophages within the TME: notable expansion
B16F10 tumors; LD4172 20 mg/kg plus anti-PD1 100 μg
  cytotoxic CD8 + T cells within the TME, combined with anti-PD1: increased infiltration
